In US9084779B2, “Conjugates of nitroimidazoles and their use as chemotherapeutic agents” (The Johns Hopkins University, priority 2011, dated 2015):
Values after ≈ are worked out from the molar mass of the structure shown.

What was measured:
[1] = system: Hep3B human hepatocellular carcinoma cells; assay: MTS tetrazolium cell proliferation assay, 72-h exposure; format: cell-based; conditions: normoxic (21% O2), read-out: IC50 Normoxic (N)
From the text: Anti-proliferative assay. The human hepatocellular carcinoma cell line Hep3B was purchased from American Type culture Collection (ATCC, Manassas, Va.). Dulbecco's Modified Eagle Medium (DMEM) and penicillin/streptomycin (P/S) were obtained from GIBCO Invitrogen. Fetal Bovine serum (FBS) was obtained from Thermo Scientific Hyclone. Dimethyl sulfoxide (DMSO-Hybri-Max) was purchased from Sigma-Aldrich Co. and the CellTiter 96 AQueous One Solution Cell Proliferation Assay (MTS) was acquired from Promega Corp. Hep3B cells were maintained in DMEM supplemented with 10% FBS and 1× P/S solution. Cultures were incubated at 37° C. in a 5% CO2 atmosphere with 99% humidity. Stock solutions of test compounds were prepared in DMSO for use in the cell culture viability assays.
MTS tetrazolium cell proliferation assay. The viability of Hep3B cells exposed to the synthesized compounds was determined by the MTS assay. Briefly, Hep3B cells were plated in 96-well plates at a density of 3.0×10^3 cells/well and incubated for 24-h before treatment. At the initiation of treatment, the growth media was replaced with 200 μL of media containing increasing concentrations of the test compounds in triplicate wells. The final DMSO concentration in the media was 1.0% including the media added to the control wells minus the test compound. After a 72-hour incubation, 40 μL of MTS solution was added to each well and the plates were incubated for an additional 3.0 hours. The plates were then read at 490 nm on a Biotek Instruments PowerWave 200 microplate reader. For each experiment the percent growth inhibition relative to the control (no drug addition) was calculated and a dose inhibition curve was generated. The concentration of drug required to inhibit cell growth by 50% (IC50) compared to the control cells was then determined by non-linear regression using PSI-Plot software (Poly Software International).
Antiproliferative activity. The anti-cancer activities of the parent compounds 3 and 8 and the conjugated compounds 7a-d and 10a-d were tested against Hep3B human hepatocellular carcinoma cells in culture.

[2] = Determination of water solubility by UV absorbance of a saturated solution; format: physicochemical; conditions: for Increment (solubility): PEG tether compound in comparison with the —CH2CH2— tether compound of the same pair (7c/7a, 7d/7b, 10c/10a, 10d/10b); for solubility at 1 h: thermodynamic from solid, water, saturated solution, sonicated at 25° C., stirred at room temperature 1.0 h, filtered
Description: The aqueous solubility of all eight compounds was assessed by using a technique involving measurement of their UV absorbance^29.
Determination of Water Solubility of Compounds 7a-d and 10a-d. A saturated solution was prepared by addition of a test compound (7a-d and 10a-d; ca. 1.00 mg) to water (1.00 mL), which was sonicated at 25° C. for 5.0 min and stirring at room temperature for an additional 1.0 h. After filtration with Millipore filters (0.45-μm-pore-size polyvinylidene fluoride), the supernatant was analyzed by UV spectroscopy with concentration determined from absorbance, standardized against calibration data. Standard curves for each compound were obtained by plotting absorbance against concentration. The concentration range of the standard solutions was 1.0-10 μg/mL. For all standards, their curves were linear with γ>0.996.

[3] = system: Hep3B human hepatocellular carcinoma cells; assay: Hypoxia targeting assay, 5-h exposure then 5 days growth, MTS; format: cell-based; conditions: for Ratio IC50 (N)/IC50 (H): normoxic versus hypoxic
Description: Hypoxia targeting assay. Hep3B cells, plated in 96-well plates at a density of 3.0×10^3 cells/well, were incubated overnight and then treated with the test compounds for 5.0 hours at under hypoxic (1% O2) or normoxic (21% O2) conditions. Exposure of cells to hypoxia was carried out in a PROOX C-Chamber with O2 and CO2 levels modulated by a PROOX Model C21 Controller (BioSpherix). At the end of the treatment period, the wells were washed with phosphate buffered saline (PBS) and fresh compound-free media was added. The cells were cultured for an additional 5 days under normoxic conditions and then assayed for cell proliferation using the MTS assay.
Hypoxia targeting. Nitroimidazoles are converted to reactive compounds in hypoxic cells. Therefore it is of importance to compare the antiproliferative activities of the nitroimidazole conjugated compounds against Hep3B cells under normoxic and hypoxic conditions. In these experiments, Hep3B cells in culture were treated with each of the conjugated compounds 7c-d, 10c-d, or the parent compounds 3 or 8 for a 5.0-hour period under normoxic (21% O2) or hypoxic (1.0% O2) conditions. After treatment, the cells were returned to normal conditions and assayed for proliferation after 5 days of additional growth. […] The ratio between the IC50 values for each drug under normoxic versus hypoxic culture conditions was computed and used as a measure of the relative increase in potency.

[4] = system: subcutaneous LNCaP prostate cancer cell explants; assay: Immunofluorescence analysis of 2-nitroimidazole induced protein adducts in mouse tumor explants; format: in vivo, nude mice; conditions: daily intravenous tail vein injection for three weeks
Description: Immunofluorescence analysis of 2-nitroimidazole induced protein adducts in mouse tumor explants. Nude mice with subcutaneous LNCaP prostate cancer cell explants were administered Hydroxyprobe-1, M3N or M3N-PEG-2NI for three weeks by daily intravenous tail vein injection with an additional injection 3 hours prior to euthanization. Tumors were removed from the euthanized mice by dissection and incubated in 30% sucrose/PBS overnight at 4° C. Excess sucrose was removed and the tissue was incubated in 30% sucrose/PBS:OCT (1:1) for 1 hour at room temperature. Afterward the tissue was frozen in 100% OCT. Frozen sections of […] were prepared and fixed in 4% PFA/PBS for 1 hour at room temperature. The sections were blocked overnight at 4° C. with 5% goat serum/PBS or at room temperature for 1 hour and then incubated with Hydroxyprobe-1 rabbit antiserum (1:200) overnight at 4° C. After three washes with PBS, the secondary antibody, mouse anti rabbit-FITC (1:1000) was added for 1 hour at room temperature. The sections were mounted using Vectashield and fluorescently imaged.

[5] = system: LNCaP human prostate cancer cells; assay: Western blot analysis of 2-nitroimidazole induced protein adducts in cell culture; format: cell-based; conditions: 80 μM, 6 hours normoxic then 6 hours hypoxic or normoxic
Description: Western blot analysis of 2-nitroimidazole induced protein adducts in LNCaP cell cultures. Exponentially growing LNCaP human prostate cancer cells were treated with DMSO, 80 μM M3N-PEG-2NI or Hypoxyprobe-1 in standard media for 6 hours under normoxic conditions and then under hypoxic or normoxic conditions for additional 6 hours. Afterward the media was aspirated, the cells washed and ice cold RIPA lysis buffer was added and the cells lysed on ice for 15 minutes. The samples were centrifuged and the lysate collected. Cellular proteins in the extracts were analyzed for the presence of protein adducts using standard western blotting technique. The primary antibody was PAb2627 polyclonal antibody (1:200) directed against Hydroxyprobe-1 protein adducts. The secondary antibody was Anti-Rabbit HRP conjugate (1:2000). Detection was by chemiluminescence

[6] = system: HT29 human colorectal carcinoma cells; assay: Cell viability by plating efficiency (colony formation after replating); format: cell-based; conditions: 40 μM, 48 h, diluted 10,000 fold and replated, colonies stained eight days later
Description: FIG. 6 depicts the plating efficiency of HT29 human colorectal carcinoma cells after treatment with DMSO, 40μ M3n and 40μ M3N-PEG-2NI. HT29 cells were treated for 48 h with 40 μM M3N, 40 μM M3N-PEG-2NI or the DMSO vehicle. At the end of the treatment period, the cells were diluted 10,000 fold and replated. Eight days later colonies were stained with methylene blue.
For the further assessment of cell viability by plating efficiency, cells (2×10^6 cells/100 mm dish) from the human colorectal carcinoma cell line HT29 were treated for 48 hours with 40 μM M3N, 40 μM M3N-PEG-2NI or the DMSO vehicle. At the end of the treatment period, the cells from each dish were released by trypsinization, diluted 10,000 fold and replated into new 100 mm dishes. Eight days later colonies were stained with 0.25% methylene blue in 50% ethanol

[7] = system: Hep3B human hepatocellular carcinoma cells; assay: MTT cell viability assay, 3 days; format: cell-based; conditions: normoxic conditions, 1% DMSO
Description: (§1) Additional cell culture, drug treatment and cell viability assays. HT29 human colorectal carcinoma cells, 786-0 human renal adenocarcinoma cells and Hep3B human hepatocellular carcinoma cells were obtained from ATCC and maintained in culture according to their recommendations. […] After the treatment period viability of the cells was determined with the MTT cell viability assay and dose response curves were generated using the calculated values of the percentage viable cells relative to the vehicle control.

[8] = system: 786-0 human renal adenocarcinoma cells; assay: MTT cell viability assay, 3 days; format: cell-based; conditions: normoxic conditions, 1% DMSO
Description: as §1

[9] = system: HT29 human colorectal carcinoma cells; assay: MTT cell viability assay, 3 days; format: cell-based; conditions: normoxic conditions, 1% DMSO
Description: as §1

[10] = Homo sapiens, hypoxic (1.0% O2), then 5 days normoxic growth, read-out: IC50 Hypoxic (H)
[11] = Homo sapiens, normoxic (21% O2), then 5 days growth, read-out: IC50 Normoxic (N)
[12] = hypoxic (1.0% O2), then 5 days normoxic growth, read-out: IC50 Hypoxic (H)

Molecule | IC50 [1] | Increment (solubility) [2] | solubility at 1 h [2] | Ratio IC50 (N)/IC50 (H) [3] | also measured
COc1ccc(C[C@H](C)[C@H](C)Cc2ccc(OC)c(OCCn3cnc([N+](=O)[O-])c3)c2)cc1OC (racemic) [Compound 7a, (±)-(2R,3S)-4-(3,4-Dimethoxyphenyl)-1-[4-methoxy-3-[2-(4-nitro-1H-imidazol-1-yl)ethoxy]phenyl]-2,3-dimethylbutane] | 15.8 ± 1.6 µM | 10.5 fold | 1.76 µg/mL (≈ 3.64 µM) | – | –
COc1ccc(C[C@H](C)[C@H](C)Cc2ccc(OC)c(OCCn3ccnc3[N+](=O)[O-])c2)cc1OC (racemic) [Compound 7b, (±)-(2R,3S)-4-(3,4-Dimethoxyphenyl)-1-[4-methoxy-3-[2-(2-nitro-1H-imidazol-1-yl)ethoxy]phenyl]-2,3-dimethylbutane] | 21.8 ± 4.5 µM | 8.1 fold | 1.64 µg/mL (≈ 3.39 µM) | – | –
COc1ccc(C[C@H](C)[C@H](C)Cc2ccc(OC)c(OCCOCCOCCOCCn3cnc([N+](=O)[O-])c3)c2)cc1OC (racemic) [Compound 7c, (±)-(2R,3S)-4-(3,4-Dimethoxyphenyl)-1-[4-methoxy-3-[12-(4-nitro-1H-imidazol-1-yl)-1,4,7,10-tetraoxadodecanyl]phenyl]-2,3-dimethylbutane] | 13 ± 5.1 µM | – | 18.5 µg/mL (≈ 30.1 µM) | 1.62 | IC50 [3, 10]: 64.3 ± 15.1 µM; IC50 [3, 11]: 104 ± 17.6 µM
COc1ccc(CC(C)C(C)Cc2ccc(OC)c(OC)c2)cc1O (stereo not drawn) [Compound 3, trimethyl NDGA, reference compound] | – | – | – | 1.58 | IC50 [3, 12]: 99 ± 0.6 µM
COc1ccc(CC(C)C(C)Cc2ccc(OC)c(OC)c2)cc1O (stereo not drawn) [Compound 8, trimethyl NDGA, reference compound] | – | – | – | 1.28 | IC50 [3, 12]: 87.6 ± 8.7 µM
Cl.O=[N+]([O-])c1nccn1CC(O)CN1CCCCC1 (stereo not drawn) [Hydroxyprobe-1] | – | – | – | – | Protein adducts in tumor sections by immunofluorescence [4]: Protein-adducts were also found; Protein adducts by western blot (PAb2627 antibody) [5]: showed evidence of protein adducts
tri-O-methyl NDGA [Compound M3N, reference compound] | – | – | – | – | Protein adducts in tumor sections by immunofluorescence [4]: little evidence of adduct formation; Ability of HT29 cells to replicate after treatment (plating efficiency) [6]: able to replicate after treatment; IC50 [7]: 15 to 30 µM; IC50 [8]: 36 to 64 µM; IC50 [9]: > 80 µM; Protein adducts by western blot (PAb2627 antibody) [5]: No protein adducts were detected

Now from value to molecule, other results behind:

IC50 [1] | Increment (solubility) [2] | solubility at 1 h [2] | Molecule | Ratio IC50 (N)/IC50 (H) [3] | also measured
18.7 ± 4.1 µM | 6.5 fold | 1.63 µg/mL (≈ 3.37 µM) | COc1ccc(C[C@H](C)[C@H](C)Cc2ccc(OCCn3cnc([N+](=O)[O-])c3)c(OC)c2)cc1OC (racemic) [Compound 10a, (±)-(2R,3S)-4-(3,4-Dimethoxyphenyl)-1-[3-methoxy-4-[2-(4-nitro-1H-imidazol-1-yl)ethoxy]phenyl]-2,3-dimethylbutane] | – | –
24.8 ± 8.7 µM | 11.2 fold | 1.7 µg/mL (≈ 3.52 µM) | COc1ccc(C[C@H](C)[C@H](C)Cc2ccc(OCCn3ccnc3[N+](=O)[O-])c(OC)c2)cc1OC (racemic) [Compound 10b, (±)-(2R,3S)-4-(3,4-Dimethoxyphenyl)-1-[3-methoxy-4-[2-(2-nitro-1H-imidazol-1-yl)ethoxy]phenyl]-2,3-dimethylbutane] | – | –
12.5 ± 4.1 µM | – | 10.5 µg/mL (≈ 17.1 µM) | COc1ccc(C[C@H](C)[C@H](C)Cc2ccc(OCCOCCOCCOCCn3cnc([N+](=O)[O-])c3)c(OC)c2)cc1OC (racemic) [Compound 10c, (±)-(2R,3S)-4-(3,4-Dimethoxyphenyl)-1-[3-methoxy-4-[12-(4-nitro-1H-imidazol-1-yl)-1,4,7,10-tetraoxadodecanyl]phenyl]-2,3-dimethylbutane] | 2.69 | IC50 [3, 10]: 52.1 ± 3.8 µM; IC50 [3, 11]: 140 ± 33.5 µM
13.4 ± 3.4 µM | – | 19.1 µg/mL (≈ 31.1 µM) | COc1ccc(C[C@H](C)[C@H](C)Cc2ccc(OCCOCCOCCOCCn3ccnc3[N+](=O)[O-])c(OC)c2)cc1OC (racemic) [Compound 10d, (±)-(2R,3S)-4-(3,4-Dimethoxyphenyl)-1-[3-methoxy-4-[12-(2-nitro-1H-imidazol-1-yl)-1,4,7,10-tetraoxadodecanyl]phenyl]-2,3-dimethylbutane] | 2.42 | IC50 [3, 10]: 49.1 ± 4.9 µM; IC50 [3, 11]: 119 ± 42.8 µM
